Assay results published in ChEMBL document CHEMBL1151933, “Identification of a disruptor of the MDM2-p53 protein-protein interaction facilitated by high-throughput in silico docking” (Bioorg Med Chem Lett, 2009).

Columns and labels:
[1] = Inhibition of GST-tagged MDM2 (1-150) / full-length His6-tagged p53 interaction expressed in Escherichia coli by alphascreen assay
[2] = Inhibition of GST-tagged MDM2/His6-tagged p53 interaction by ELISA
[3] = Inhibition of GST-tagged MDM2/His6-tagged p53 interaction at 100 uM by ELISA

| IC50 [1] [µM] | IC50 [2] [µM] | inhibition [3] [%] | Structure (SMILES) |
| --- | --- | --- | --- |
| 13 |  |  | c1ccc(/C(=N/Nc2nc3ccccc3s2)c2ccccn2)cc1.c1ccc(/C(=N\Nc2nc3ccccc3s2)c2ccccn2)cc1 (mixture of isomers; form 1) |
| 25 | 20 |  | c1ccc(/C(=N/Nc2nc3ccccc3s2)c2ccccn2)cc1.c1ccc(/C(=N\Nc2nc3ccccc3s2)c2ccccn2)cc1 (mixture of isomers; form 2) [listing 1 of 2 here] |
|  |  | > 50 | c1ccc(/C(=N/Nc2nc3ccccc3s2)c2ccccn2)cc1.c1ccc(/C(=N\Nc2nc3ccccc3s2)c2ccccn2)cc1 (mixture of isomers; form 2) [listing 2 of 2 here] |
| 0.25 |  |  | COc1ccc(C2=N[C@@H](c3ccc(Cl)cc3)[C@@H](c3ccc(Cl)cc3)N2C(=O)N2CCNC(=O)C2)c(OC(C)C)c1 [NUTLIN-3] |
